Data on 44 molecules can be found in US20230079819A1, “COMPOUNDS AND USES THEREOF” (Foghorn Therapeutics Inc., priority 2019, published 2023).

In one assay the target is T1, BRM (Homo sapiens, UniProt P51531).
T1 construct: made in house; host or cells: High Five insect cells
Description: ATPase catalytic activity of BRM, ADP-Glo in vitro biochemical assay. The settings on record: ATPase catalytic activity, 30 nM BRM, 400 μM ATP, read-out: BRM IP50 (μM)*.

For a further assay, the target named is T2, BRG-1 (Homo sapiens, UniProt P51532).
T2 construct: made in house; host or cells: High Five insect cells
T2 sequence (P51532 whole entry): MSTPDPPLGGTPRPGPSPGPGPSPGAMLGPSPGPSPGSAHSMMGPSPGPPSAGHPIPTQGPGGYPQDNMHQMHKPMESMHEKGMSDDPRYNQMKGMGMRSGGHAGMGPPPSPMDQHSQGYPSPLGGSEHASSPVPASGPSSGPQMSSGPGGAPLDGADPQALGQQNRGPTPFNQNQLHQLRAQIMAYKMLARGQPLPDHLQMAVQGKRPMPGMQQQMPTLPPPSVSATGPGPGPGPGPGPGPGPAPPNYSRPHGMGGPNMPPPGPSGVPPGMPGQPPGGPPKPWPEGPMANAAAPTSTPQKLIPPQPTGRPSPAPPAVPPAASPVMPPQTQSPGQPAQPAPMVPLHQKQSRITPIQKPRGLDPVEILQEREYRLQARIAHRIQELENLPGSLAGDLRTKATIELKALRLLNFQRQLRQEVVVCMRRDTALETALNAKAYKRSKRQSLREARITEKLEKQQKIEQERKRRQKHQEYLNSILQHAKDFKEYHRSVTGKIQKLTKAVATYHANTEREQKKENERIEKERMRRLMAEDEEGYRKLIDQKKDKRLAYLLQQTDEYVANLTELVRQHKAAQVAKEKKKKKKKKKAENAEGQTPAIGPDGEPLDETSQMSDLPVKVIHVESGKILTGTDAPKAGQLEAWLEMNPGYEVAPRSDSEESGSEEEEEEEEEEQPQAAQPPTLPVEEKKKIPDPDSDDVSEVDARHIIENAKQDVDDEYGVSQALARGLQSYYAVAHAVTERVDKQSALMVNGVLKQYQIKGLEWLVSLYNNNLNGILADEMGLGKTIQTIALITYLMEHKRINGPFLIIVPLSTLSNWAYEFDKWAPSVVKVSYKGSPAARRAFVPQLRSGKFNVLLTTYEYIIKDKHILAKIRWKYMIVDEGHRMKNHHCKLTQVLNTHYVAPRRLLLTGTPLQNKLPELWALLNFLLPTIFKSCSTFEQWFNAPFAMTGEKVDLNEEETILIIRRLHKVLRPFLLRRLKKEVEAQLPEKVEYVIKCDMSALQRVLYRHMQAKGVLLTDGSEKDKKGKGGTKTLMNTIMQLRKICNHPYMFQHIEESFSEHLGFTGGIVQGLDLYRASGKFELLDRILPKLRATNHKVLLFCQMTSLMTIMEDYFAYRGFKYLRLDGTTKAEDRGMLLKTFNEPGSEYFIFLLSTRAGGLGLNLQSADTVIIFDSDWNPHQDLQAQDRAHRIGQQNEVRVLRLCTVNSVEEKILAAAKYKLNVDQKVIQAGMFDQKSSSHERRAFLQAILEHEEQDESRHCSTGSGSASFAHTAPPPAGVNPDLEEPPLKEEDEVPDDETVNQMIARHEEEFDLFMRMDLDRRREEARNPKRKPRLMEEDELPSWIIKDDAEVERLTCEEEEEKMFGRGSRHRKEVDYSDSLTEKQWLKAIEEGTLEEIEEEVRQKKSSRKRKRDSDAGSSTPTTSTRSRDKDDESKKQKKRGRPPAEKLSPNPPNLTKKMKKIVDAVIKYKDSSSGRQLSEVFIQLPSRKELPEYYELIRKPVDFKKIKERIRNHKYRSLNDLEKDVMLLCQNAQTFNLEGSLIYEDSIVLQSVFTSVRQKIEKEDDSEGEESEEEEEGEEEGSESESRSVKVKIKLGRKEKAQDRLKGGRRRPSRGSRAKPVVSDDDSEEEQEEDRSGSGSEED
Description: ATPase catalytic activity of BRG-1, ADP-Glo in vitro biochemical assay. The settings on record: ATPase catalytic activity, 30 nM BRG-1, 400 μM ATP, read-out: BRG1 IP50 (μM)*. (In ADP-Glo the light output rises with the ADP produced.)

T1 sequence (P51531 whole entry): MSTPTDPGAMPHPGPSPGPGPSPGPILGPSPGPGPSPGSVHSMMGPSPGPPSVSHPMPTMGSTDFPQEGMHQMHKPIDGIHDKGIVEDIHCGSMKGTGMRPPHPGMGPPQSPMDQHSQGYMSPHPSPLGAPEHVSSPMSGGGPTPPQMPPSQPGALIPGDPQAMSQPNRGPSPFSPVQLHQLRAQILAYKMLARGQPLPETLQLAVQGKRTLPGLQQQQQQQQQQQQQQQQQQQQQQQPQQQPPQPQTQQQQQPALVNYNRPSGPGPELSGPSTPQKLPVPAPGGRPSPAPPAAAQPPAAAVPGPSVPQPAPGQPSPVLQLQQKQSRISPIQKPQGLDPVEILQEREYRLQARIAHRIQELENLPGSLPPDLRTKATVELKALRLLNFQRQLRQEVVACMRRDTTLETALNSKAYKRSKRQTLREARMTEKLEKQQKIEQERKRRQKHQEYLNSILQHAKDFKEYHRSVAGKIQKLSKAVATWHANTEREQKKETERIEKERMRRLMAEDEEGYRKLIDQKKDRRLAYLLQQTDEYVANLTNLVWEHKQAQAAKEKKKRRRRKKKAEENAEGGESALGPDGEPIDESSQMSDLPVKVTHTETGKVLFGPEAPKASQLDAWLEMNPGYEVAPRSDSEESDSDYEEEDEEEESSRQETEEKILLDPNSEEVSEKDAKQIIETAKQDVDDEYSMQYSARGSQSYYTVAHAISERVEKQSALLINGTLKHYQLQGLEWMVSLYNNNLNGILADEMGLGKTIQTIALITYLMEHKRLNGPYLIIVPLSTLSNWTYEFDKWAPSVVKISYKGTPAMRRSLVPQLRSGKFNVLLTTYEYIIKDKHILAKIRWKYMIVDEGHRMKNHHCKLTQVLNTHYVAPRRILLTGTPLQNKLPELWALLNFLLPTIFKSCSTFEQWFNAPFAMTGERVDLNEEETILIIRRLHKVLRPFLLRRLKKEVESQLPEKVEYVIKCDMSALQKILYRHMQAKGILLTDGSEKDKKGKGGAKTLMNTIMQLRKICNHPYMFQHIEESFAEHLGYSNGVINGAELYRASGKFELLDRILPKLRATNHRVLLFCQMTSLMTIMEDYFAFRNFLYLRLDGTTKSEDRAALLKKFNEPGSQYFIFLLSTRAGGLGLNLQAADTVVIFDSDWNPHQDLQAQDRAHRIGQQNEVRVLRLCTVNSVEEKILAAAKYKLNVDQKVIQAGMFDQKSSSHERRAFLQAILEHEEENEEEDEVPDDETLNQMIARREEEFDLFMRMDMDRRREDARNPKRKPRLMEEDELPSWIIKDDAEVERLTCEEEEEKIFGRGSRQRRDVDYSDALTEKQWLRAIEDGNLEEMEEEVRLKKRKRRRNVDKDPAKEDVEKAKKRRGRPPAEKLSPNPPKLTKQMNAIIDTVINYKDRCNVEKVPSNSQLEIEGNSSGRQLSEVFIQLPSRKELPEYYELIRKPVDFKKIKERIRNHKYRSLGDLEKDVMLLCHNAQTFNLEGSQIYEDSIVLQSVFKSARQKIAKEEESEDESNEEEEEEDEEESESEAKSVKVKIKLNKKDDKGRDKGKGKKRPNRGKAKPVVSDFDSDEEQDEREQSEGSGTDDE

For `CO[C@@H]1CCCN(c2cccc(-c3csc(NC(=O)CNC(=O)c4ccn(C(C)(C)C)c4)n3)n2)C1` [Compound 312], the IC50 on BRM and on BRG-1 was more than 0.01 µM throughout.
With `CO[C@H]1CCCN(c2cccc(-c3csc(NC(=O)CNC(=O)c4ccn(C5(C)COC5)c4)n3)n2)C1` [Compound 313], the IC50 on BRM and at BRG-1 was more than 0.1 µM throughout.
Regarding `CC(C)(C)n1ccc(C(=O)NCC(=O)Nc2nc(-c3cccc(N4CCC(O)CC4)n3)cs2)c1` [Compound 314], the IC50 on BRM and at BRG-1 was more than 0.01 µM throughout.
For `C[C@@H]1CN(c2cccc(-c3csc(NC(=O)CNC(=O)c4ccn(C5(C)COC5)c4)n3)n2)C[C@H](C)O1` [Compound 316], the values for the IC50 at BRM and on BRG-1 were less than 0.01 µM and more than 0.01 µM, respectively.
In the same order, the values of `CC(C)(C)n1ccc(C(=O)NCC(=O)Nc2nc(-c3cccc(N4CC(N5CCOCC5)C4)n3)cs2)c1` [Compound 317] are more than 0.1 µM and more than 0.1 µM.
In the same order, the values of `COC[C@@H]1CCCN(c2cccc(-c3csc(NC(=O)CNC(=O)c4ccn(C(C)(C)C)c4)n3)n2)C1` [Compound 318] are more than 0.01 µM and more than 0.01 µM.
Take `COC[C@H]1CCCN(c2cccc(-c3csc(NC(=O)CNC(=O)c4ccn(C(C)(C)C)c4)n3)n2)C1` [Compound 319]: the IC50 on BRM and on BRG-1 was more than 0.01 µM throughout.
On to `CC1(n2ccc(C(=O)NCC(=O)Nc3nc(-c4ccnc(N5CCC(O)CC5)n4)cs3)c2)COC1` [Compound 321], for which the IC50 at BRM was more than 0.01 µM; on BRG-1, more than 0.1 µM.
On the same counts, the results for `CC(C)(C)n1ccc(C(=O)NCC(=O)Nc2nc(-c3ccnc(N4CCC(O)CC4)n3)cs2)c1` [Compound 322] are more than 0.01 µM and more than 0.01 µM.
In the same order, the values of `C[C@@H]1CN(c2nccc(-c3csc(NC(=O)CNC(=O)c4ccn(C5(C)COC5)c4)n3)n2)C[C@H](C)O1` [Compound 324] are more than 0.01 µM and more than 0.01 µM.
On the same counts, the results for `C[C@@H]1CN(c2nccc(-c3csc(NC(=O)CNC(=O)c4ccn(S(C)(=O)=O)c4)n3)n2)C[C@H](C)O1` [Compound 325] are less than 0.01 µM and less than 0.01 µM.
With `C[C@@H]1CN(c2nccc(-c3csc(NC(=O)CNC(=O)c4ccn(C(C)(C)C)c4)n3)n2)C[C@H](C)O1` [Compound 326], the IC50 at BRM is less than 0.01 µM; at BRG-1, more than 0.01 µM.
For the molecule `Cn1ccc(-c2cccc(-c3csc(NC(=O)CNC(=O)c4ccn(C5(C)COC5)c4)n3)n2)n1` [Compound 327, 1-(3-methyloxetan-3-yl)-N-[2-[[4-[6-(1-methylpyrazol-3-yl)-2-pyridyl]thiazol-2-yl]amino]-2-oxo-ethyl]pyrrole-3-carboxamide], the IC50 on BRM and at BRG-1 was more than 0.01 µM in each case.
Turning to `CO[C@@H]1CCCN(c2cccc(-c3csc(NC(=O)CNC(=O)c4ccn(C5(C)COC5)c4)n3)n2)C1` [Compound 330], the IC50 at BRM and on BRG-1 was more than 0.1 µM throughout.
Consider `C[C@@H]1CN(c2cccc(-c3csc(NC(=O)CNC(=O)c4ccn(C(C)(C)C#N)c4)n3)n2)C[C@H](C)O1` [Compound 331], for which the IC50 on BRM and at BRG-1 was less than 0.01 µM in each case.
Regarding `C[C@@H]1CN(c2cccc(-c3csc(NC(=O)CNC(=O)c4ccn(C5(C(F)(F)F)CC5)c4)n3)n2)C[C@H](C)O1` [Compound 332], the IC50 on BRM was more than 0.01 µM; on BRG-1, more than 0.1 µM.
In the same order, the values of `C[C@@H]1CN(c2cccc(-c3csc(NC(=O)CNC(=O)c4ccn(C5(C)CC5)c4)n3)n2)C[C@H](C)O1` [Compound 333] are less than 0.01 µM and less than 0.01 µM.
On the same counts, the results for `C[C@@H]1CCCN(c2cccc(-c3csc(NC(=O)CNC(=O)c4ccn(S(C)(=O)=O)c4)n3)n2)C1` [Compound 336] are more than 0.01 µM and more than 0.01 µM.
Regarding `CC1(n2ccc(C(=O)NCC(=O)Nc3nc(-c4cccc(N5CCC(O)CC5)n4)cs3)c2)COC1` [Compound 337], the IC50 at BRM and on BRG-1 was more than 0.01 µM each time.
For `CS(=O)(=O)n1ccc(C(=O)NCC(=O)Nc2nc(-c3cccc(N4CCC(F)CC4)n3)cs2)c1` [Compound 339], the IC50 on BRM and at BRG-1 was more than 0.01 µM throughout.
Consider `C[C@H]1CCCN(c2cccc(-c3csc(NC(=O)CNC(=O)c4ccn(S(C)(=O)=O)c4)n3)n2)C1` [Compound 340], for which the IC50 at BRM and at BRG-1 was more than 0.01 µM in each case.
`CC1(n2ccc(C(=O)NCC(=O)Nc3nc(-c4cccc(N5CCOCC5)n4)cs3)c2)COC1` [Compound 341]: the values for the IC50 on BRM and at BRG-1 were more than 0.01 µM and more than 0.1 µM, respectively.
In the same order, the values of `C[C@@H]1CN(c2cccc(-c3csc(NC(=O)CNC(=O)c4ccn(C5COC5)c4)n3)n2)C[C@H](C)O1` [Compound 343] are more than 0.01 µM and more than 0.1 µM.
Take `C[C@@H]1CN(c2cccc(-c3csc(NC(=O)CNC(=O)c4ccn(C(C)(C)C)n4)n3)n2)C[C@H](C)O1` [Compound 344]: the IC50 on BRM and at BRG-1 was more than 0.01 µM throughout.
As for `COC[C@H](NC(=O)c1ccn(C(C)(C)C)n1)C(=O)Nc1nc(-c2ccc3ccn(C)c(=O)c3c2)cs1` [Compound 345], the IC50 at BRM and at BRG-1 was more than 0.1 µM throughout.
For the molecule `CCn1ccc2ccc(-c3csc(NC(=O)[C@H](COC)NC(=O)c4ccn(C(C)(C)C)c4)n3)cc2c1=O` [Compound 347], the IC50 at BRM and at BRG-1 was more than 0.01 µM in each case.
Regarding `C[C@H](NC(=O)c1ccn(C2(C)COC2)c1)C(=O)Nc1nc(-c2ccc3ccn(C)c(=O)c3c2)cs1` [Compound 348], the IC50 on BRM and on BRG-1 was more than 0.01 µM in each case.
In the case of `CS(=O)(=O)n1ccc(C(=O)NCC(=O)Nc2nc(-c3cccc(C#CC4COC4)c3)cs2)c1` [Compound 349], the IC50 at BRM and at BRG-1 was more than 0.01 µM in each case.
In the case of `COC[C@H](NC(=O)c1ccn(S(C)(=O)=O)c1)C(=O)Nc1nc(-c2ccc3c(c2)C(=O)N(C)CC3)cs1` [Compound 351], the IC50 on BRM and on BRG-1 was more than 0.01 µM each time.
Regarding `COC[C@H](NC(=O)c1ccn(S(C)(=O)=O)c1)C(=O)Nc1nc(-c2cccc(-c3cnn(C)n3)c2)cs1` [Compound 352], the IC50 on BRM and on BRG-1 was less than 0.01 µM throughout.
On to `COC[C@H](NC(=O)c1ccn(S(C)(=O)=O)c1)C(=O)Nc1nc(-c2cccc(C3CC(C)(C)OC(C)(C)C3)c2)cs1` [Compound 353], for which the IC50 at BRM was more than 0.01 µM; at BRG-1 it was more than 0.1 µM.
On the same counts, the results for `COC[C@H](NC(=O)c1ccn(S(C)(=O)=O)c1)C(=O)Nc1nc(-c2cccc(C3=CC(C)(C)OC(C)(C)C3)c2)cs1` [Compound 354] are more than 0.01 µM and more than 0.01 µM.
In the same order, the values of `C[C@H](NC(=O)c1ccn(S(C)(=O)=O)c1)C(=O)Nc1nc(-c2cccc(-c3cnn(C)n3)c2)cs1` [Compound 355] are more than 0.01 µM and more than 0.01 µM.
Consider `COC[C@H](NC(=O)c1ccn(S(C)(=O)=O)c1)C(=O)Nc1nc(-c2cccc(-c3cccc(C)n3)c2)cs1` [Compound 356], for which the IC50 at BRM and at BRG-1 was more than 0.01 µM each time.
With `COC[C@H](NC(=O)c1ccn(S(C)(=O)=O)c1)C(=O)Nc1nc(-c2cccc(-c3ccnc(C)n3)c2)cs1` [Compound 357, N-[(1S)-1-(methoxymethyl)-2-[[4-[3-(2-methylpyrimidin-4-yl)phenyl]thiazol-2-yl]amino]-2-oxo-ethyl]-1-methylsulfonyl-pyrrole-3-carboxamide], the IC50 at BRM and on BRG-1 was less than 0.01 µM each time.
`COC[C@H](NC(=O)c1ccn(S(C)(=O)=O)c1)C(=O)Nc1nc(-c2cccc(-c3cc(C)nc(C)n3)c2)cs1` [Compound 358, N-[(1S)-2-[[4-[3-(2,6-dimethylpyrimidin-4-yl)phenyl]thiazol-2-yl]amino]-1-(methoxymethyl)-2-oxo-ethyl]-1-methylsulfonyl-pyrrole-3-carboxamide]: the IC50 at BRM and at BRG-1 was less than 0.01 µM each time.
For `COC[C@H](NC(=O)c1ccn(S(C)(=O)=O)c1)C(=O)Nc1nc(-c2cccc(-c3ccnc(C(F)F)c3)c2)cs1` [Compound 359], the IC50 at BRM and on BRG-1 was less than 0.01 µM in each case.
Turning to `COC[C@H](NC(=O)c1ccn(S(C)(=O)=O)c1)C(=O)Nc1nc(-c2cccc(-c3cnn(C)c3)c2)cs1` [Compound 360], the IC50 at BRM and on BRG-1 was more than 0.01 µM throughout.
On to `CC1(C#Cc2cccc(-c3csc(NC(=O)CNC(=O)c4ccn(S(C)(=O)=O)c4)n3)c2)COC1` [Compound 361, N-(2-((4-(3-((3-methyloxetan-3-yl)ethynyl)phenyl)thiazol-2-yl)amino)-2-oxoethyl)-1-(methylsulfonyl)-1H-pyrrole-3-carboxamide], for which the IC50 on BRM and at BRG-1 was more than 0.01 µM each time.
As to `COC(C)(C)C#Cc1cccc(-c2csc(NC(=O)CNC(=O)c3ccn(C(C)(C)C)c3)n2)n1` [Compound 362, 1-(tert-butyl)-N-(2-((4-(6-(3-methoxy-3-methylbut-1-yn-1-yl)pyridin-2-yl)thiazol-2-yl)amino)-2-oxoethyl)-1H-pyrrole-3-carboxamide], the IC50 at BRM and on BRG-1 was more than 0.1 µM in each case.
Turning to `COC(C)(C)C#Cc1cccc(-c2csc(NC(=O)CNC(=O)c3ccn(S(C)(=O)=O)c3)n2)c1` [Compound 363], the IC50 on BRM and on BRG-1 was more than 0.01 µM each time.
Consider `C[C@H](NC(=O)c1ccn(S(C)(=O)=O)c1)C(=O)Nc1nc(-c2cccc(N3CCC3)c2)cs1` [Compound 364], for which the IC50 at BRM and at BRG-1 was more than 0.01 µM in each case.
With `C[C@H](NC(=O)c1ccn(S(C)(=O)=O)c1)C(=O)Nc1nc(-c2cccc(N3CC(O)C3)c2)cs1` [Compound 365], the IC50 on BRM and on BRG-1 was more than 0.01 µM in each case.
For the molecule `COC[C@H](NC(=O)c1ccn(S(C)(=O)=O)c1)C(=O)Nc1nc(-c2cccc(N3CCC3)c2)cs1` [Compound 366], the IC50 is less than 0.01 µM on BRM and more than 0.01 µM at BRG-1.
